Measured values published in US20250115572A1, “SPIROCYCLIC PIPERIDINYL DERIVATIVES AS COMPLEMENT FACTOR B INHIBITORS AND USES THEREOF” (Novartis AG, priority 2022, published 2025).
Where two headings read alike, the source gives them in different places.

Target: Recombinant human factor B (Homo sapiens (Human), UniProt P00751)
Test: Human Complement Factor B TR-FRET Assay
Format: binding
Conditions: * = assay behavior at and above the stated concentration prevented IC50 determination
Experimental: The time-gated decrease in fluorescence intensity related to the competition between labeled and unlabeled factor B ligands was recorded at both 620 nm and 665 nm, 70 μs after excitation at 337 nm using a microplate spectrofluorimeter.

[1] = displacement of labeled factor B ligand, read-out: hFactor-B TR-FRET Qualified IC50

Sequence of Recombinant human factor B (P00751 26-764): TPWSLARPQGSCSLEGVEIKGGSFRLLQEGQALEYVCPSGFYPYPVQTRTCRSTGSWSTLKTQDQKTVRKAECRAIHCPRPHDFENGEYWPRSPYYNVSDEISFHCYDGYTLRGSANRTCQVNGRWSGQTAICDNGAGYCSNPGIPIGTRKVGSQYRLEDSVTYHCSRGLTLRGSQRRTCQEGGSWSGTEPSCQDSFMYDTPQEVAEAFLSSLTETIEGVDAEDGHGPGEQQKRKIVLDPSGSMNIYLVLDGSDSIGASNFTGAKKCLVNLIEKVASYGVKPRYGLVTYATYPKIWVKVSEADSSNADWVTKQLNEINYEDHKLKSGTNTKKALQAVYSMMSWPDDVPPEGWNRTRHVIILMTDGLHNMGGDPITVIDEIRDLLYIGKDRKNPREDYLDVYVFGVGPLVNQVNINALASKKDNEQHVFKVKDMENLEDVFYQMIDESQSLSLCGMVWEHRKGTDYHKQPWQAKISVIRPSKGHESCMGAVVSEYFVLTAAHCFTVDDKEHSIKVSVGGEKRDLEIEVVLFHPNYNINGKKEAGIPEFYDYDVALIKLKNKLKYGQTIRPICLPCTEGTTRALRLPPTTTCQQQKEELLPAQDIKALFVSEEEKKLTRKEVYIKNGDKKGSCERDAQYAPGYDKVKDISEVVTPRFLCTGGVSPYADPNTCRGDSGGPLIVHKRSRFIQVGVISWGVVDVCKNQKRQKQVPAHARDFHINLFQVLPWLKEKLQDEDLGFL

SMILES | IC50 [1] [µM] | IC50 (hFactor-B TR-FRET Qualified IC50, displacement of labeled factor B ligand) [µM]
COc1cc(C)c2[nH]ccc2c1CN1CCC2(CCC(F)(F)C2)C[C@@H]1c1ccc(C(=O)O)cc1 (single isomer, unassigned) [Ex-19] | 1.46 | –
Cc1cc(C2CC2)c(CN2CCC3(C[C@@H]2c2ccc(C(=O)O)nc2)CC(F)(F)C3)c2cc[nH]c12 [Ex-67] | 0.337 | –
Cc1cc(C2CC2)c(CN2CCC3(C[C@H]2c2ccc(C4(O)COC4)cc2)CC(F)(F)C3)c2cc[nH]c12 (single isomer, unassigned) [Ex-25] | 0.004 | –
COc1cc(C)c2[nH]ccc2c1CN1CCC2(C[C@H]1c1cnn(C(F)F)c1)CC(F)(F)C2 (single isomer, unassigned) [Ex-41] | 0.0096 | –
Cc1cc(C2CC2)c(CN2CCC3(C[C@H]2c2ccc(-c4nnn[nH]4)cc2)CC(F)(F)C3)c2cc[nH]c12 (single isomer, unassigned) [Ex-33] | 0.0016 | –
COc1cc(C)c2[nH]ccc2c1CN1CCC2(C[C@@H]1c1cnn(C(F)F)c1)CC(F)(F)C2 (single isomer, unassigned) [Ex-42] | 0.861 | –
COc1cc(C)c2[nH]ccc2c1CN1CCC2(CC(F)C2)C[C@H]1c1ccc(C(=O)O)cc1 (single isomer, unassigned) [Ex-9, 4-(2-fluoro-7-((5-methoxy-7-methyl-1H-indol-4-yl)methyl)-7-azaspiro[3.5]nonan-6-yl)benzoic acid] | 0.0021 | –
COc1cc(C)c2[nH]ccc2c1CN1CCC2(CC(F)C2)C[C@H]1c1ccc(C(=O)O)cc1 (single isomer, unassigned) [Ex-7] | 0.0008 | –
COc1cc(C)c2[nH]ccc2c1CN1CCC2(CC1c1ccc(C(=O)O)cc1)CC(C)(O)C2 (racemic) [Ex-16] | 0.434 | –
COc1cc(C)c2[nH]ccc2c1CN1CCC2(CCC(F)(F)C2)C[C@H]1c1ccc(C(=O)O)cc1 (single isomer, unassigned) [Ex-20] | 0.0076 | –
COc1cc(C)c2[nH]ccc2c1CN1CCC2(C[C@@H]1c1ccccc1)CC(F)(F)C2 (single isomer, unassigned) [Ex-38] | 5.51 | –
COc1cc(C)c2[nH]ccc2c1CN1CCC2(CC1c1ccc(C(F)F)cc1)CC(F)(F)C2 (racemic) [Ex-52] | 0.172 | –
Cc1cc(C2CC2)c(CN2CCC3(CC2c2ccc(-c4nnn[nH]4)cc2)CC(F)(F)C3)c2cc[nH]c12 (racemic) [Ex-57, 6-(4-(1H-tetrazol-5-yl)phenyl)-7-((5-cyclopropyl-7-methyl-1H-indol-4-yl)methyl)-2,2-difluoro-7-azaspiro[3.5]nonane] | 0.005 | –
COc1cc(C)c2[nH]ccc2c1CN1CCC2(CCC(F)(F)C2)C[C@H]1c1ccc(C(=O)O)cc1 (single isomer, unassigned) [Ex-18, 4-((5S,7S)-2,2-difluoro-8-((5-methoxy-7-methyl-1H-indol-4-yl)methyl)-8-azaspiro[4.5]decan-7-yl)benzoic acid or 4-((5R,7S)-2,2-difluoro-8-((5-methoxy-7-methyl-1H-indol-4-yl)methyl)-8-azaspiro[4.5]decan-7-yl)benzoic acid] | 0.0034 | –
COc1cc(C)c2[nH]ccc2c1CN1CCC2(C[C@@H]1c1ccc(C(=O)O)nc1)CC(F)(F)C2 [Ex-65] | 0.235 | –
Cc1cc(C2CC2)c(CN2CCC3(C[C@@H]2c2ccc(-c4nnn[nH]4)nc2)CC(F)(F)C3)c2cc[nH]c12 (single isomer, unassigned) [Ex-63] | 0.434 | –
COc1cc(C)c2[nH]ccc2c1CN1CCC2(C[C@H]1c1ccc(C(=O)O)cc1)CC(F)(F)C2 [Ex-5, (S)-4-(2,2-difluoro-7-((5-methoxy-7-methyl-1H-indol-4-yl)methyl)-7-azaspiro[3.5]nonan-6-yl)benzoic acid] | 0.0005 | –
Cc1cc(C2CC2)c(CN2CCC3(C[C@H]2c2ccc(C(=O)O)nc2)CC(F)(F)C3)c2cc[nH]c12 [Ex-66] | 0.0021 | –
COc1cc(C)c2[nH]ccc2c1CN1CCC2(CCC(F)(F)C2)C[C@@H]1c1ccc(C(=O)O)cc1 (single isomer, unassigned) [Ex-17] | 0.32 | –
Cc1cc(C2CC2)c(CN2CCC3(C[C@@H]2c2ccc(-n4cccn4)cc2)CC(F)(F)C3)c2cc[nH]c12 (single isomer, unassigned) [Ex-32] | > 0.4 | –
Cc1cc(C2CC2)c(CN2CCC3(C[C@@H]2c2ccc(C(C)(C)O)cc2)CC(F)(F)C3)c2cc[nH]c12 (single isomer, unassigned) [Ex-28] | > 0.4 | –
COc1cc(C)c2[nH]ccc2c1CN1CCC2(C[C@@H]1c1ccc(-c3nnn[nH]3)nc1)CC(F)(F)C2 (single isomer, unassigned) [Ex-60] | 0.152 | –
COc1cc(C)c2[nH]ccc2c1CN1CCC2(C[C@H]1c1cnn(C)c1)CC(F)(F)C2 (single isomer, unassigned) [Ex-39] | 0.0103 | –
Cc1cc(C2CC2)c(CN2CCC3(C[C@H]2c2ccc(-c4nnn[nH]4)nc2)CC(F)(F)C3)c2cc[nH]c12 (single isomer, unassigned) [Ex-62] | 0.0019 | –
Cc1cc(C)c2[nH]ccc2c1CN1CCC2(C[C@H]1c1ccc(C(=O)O)cc1)CC(F)(F)C2 [Ex-22] | 0.0024 | –
COc1cc(C)c2[nH]ccc2c1CN1CCC2(COC2)C[C@@H]1c1ccc(C(=O)O)cc1 [Ex-12] | 5.3 | –

SMILES | IC50 [1] [µM] | IC50 (hFactor-B TR-FRET Qualified IC50, displacement of labeled factor B ligand) [µM]
COc1cc(C)c2[nH]ccc2c1CN1CCC2(C[C@@H]1c1cnn(C)c1)CC(F)(F)C2 (single isomer, unassigned) [Ex-40] | 0.864 | –
Cc1cc(C)c2[nH]ccc2c1CN1CCC2(C[C@@H]1c1ccc(C(=O)O)nc1)CC(F)(F)C2 [Ex-69] | 1.23 | –
COc1cc(C)c2[nH]ccc2c1CN1CCC2(CC1c1ccc(C(=O)O)cc1)CC(C)(O)C2 (racemic) [Ex-13] | 0.0294 | –
Cc1cc(C2CC2)c(CN2CCC3(C[C@@H]2c2ccc(C4(O)COC4)cc2)CC(F)(F)C3)c2cc[nH]c12 (single isomer, unassigned) [Ex-26] | > 0.4 | –
Cc1cc(C2CC2)c(CN2CCC3(CC2c2ccc(C4(O)COC4)cc2)CC(F)(F)C3)c2cc[nH]c12 (racemic) [Ex-49, 3-(4-(7-((5-cyclopropyl-7-methyl-1H-indol-4-yl)methyl)-2,2-difluoro-7-azaspiro[3.5]nonan-6-yl)phenyl)oxetan-3-ol] | 0.0056 | –
COc1cc(C)c2[nH]ccc2c1CN1CCC2(CC1c1ccc(-c3nnn[nH]3)cc1)CC(F)(F)C2 (racemic) [Ex-54, (SR)-6-(4-(1H-tetrazol-5-yl)phenyl)-2,2-difluoro-7-((5-methoxy-7-methyl-1H-indol-4-yl)methyl)-7-azaspiro[3.5]nonane] | 0.0022 | –
Cc1cc(C2CC2)c(CN2CCC3(CC2c2ccc(C(C)(C)O)cc2)CC(F)(F)C3)c2cc[nH]c12 (racemic) [Ex-48] | 0.0089 | –
Cc1cc(C2CC2)c(CN2CCC3(CC2c2ccc(-n4cccn4)cc2)CC(F)(F)C3)c2cc[nH]c12 (racemic) [Ex-50] | 0.007 | –
COc1cc(C)c2[nH]ccc2c1CN1CCC2(CC1c1cnn(C)c1)CC(F)(F)C2 (racemic) [Ex-36] | 0.0245 | –
COc1cc(C)c2[nH]ccc2c1CN1CCC2(C[C@H]1c1ccccc1)CC(F)(F)C2 (single isomer, unassigned) [Ex-37] | 0.0112 | –
Cc1cc(C2CC2)c(CN2CCC3(C[C@@H]2c2ccc(-c4ccn[nH]4)cc2)CC(F)(F)C3)c2cc[nH]c12 (single isomer, unassigned) [Ex-30] | > 0.1 | –
Cc1cc(C2CC2)c(CN2CCC3(CC2c2ccc(-c4ccn[nH]4)cc2)CC(F)(F)C3)c2cc[nH]c12 (racemic) [Ex-51] | 0.0042 | –
Cc1cc(C2CC2)c(CN2CCC3(CC2c2ccc(-c4nnn[nH]4)nc2)CC(F)(F)C3)c2cc[nH]c12 (racemic) [Ex-61, (SR)-6-(6-(1H-tetrazol-5-yl)pyridin-3-yl)-7-((5-cyclopropyl-7-methyl-1H-indol-4-yl)methyl)-2,2-difluoro-7-azaspiro[3.5]nonane] | 0.0038 | –
COc1cc(C)c2[nH]ccc2c1CN1CCC2(C[C@H]1c1ccc(C(=O)O)cc1)CC(C)(O)C2 (single isomer, unassigned) [Ex-15] | 0.105 | –
COc1cc(C)c2[nH]ccc2c1CN1CCC2(C[C@H]1c1cnn(CC(=O)O)c1)CC(F)(F)C2 [Ex-45] | 0.0094 | –
COc1cc(C)c2[nH]ccc2c1CN1CCC2(C[C@@H]1c1ccc(C(=O)O)cc1)CC(C)(F)C2 (single isomer, unassigned) [Ex-4] | 0.461 | –
Cc1cc(C2CC2(F)F)c(CN2CCC3(C[C@H]2c2ccc(C(=O)O)cc2)CC(F)(F)C3)c2cc[nH]c12 (single isomer, unassigned) [Ex-24] | 0.0314 | –
Cc1ccc(CN2CCC3(C[C@H]2c2ccc(C(=O)O)cc2)CC(F)(F)C3)c2cc[nH]c12 [Ex-53] | 0.0077 | –
COc1cc(C)c2[nH]ccc2c1CN1CCC2(C[C@H]1c1ccc(C(=O)O)cc1)CC(C)(F)C2 (single isomer, unassigned) [Ex-3] | 0.0407 | –
COc1cc(C)c2[nH]ccc2c1CN1CCC2(CC1c1ccccc1)CC(F)(F)C2 (racemic) [Ex-35] | 0.0173 | –
COc1cc(C)c2[nH]ccc2c1CN1CCC2(C[C@H]1c1ccc(-c3nnn[nH]3)nc1)CC(F)(F)C2 (single isomer, unassigned) [Ex-59] | 0.0021 | –
COc1cc(C)c2[nH]ccc2c1CN1CCC2(C[C@@H]1c1ccc(-c3nnn[nH]3)cc1)CC(F)(F)C2 (single isomer, unassigned) [Ex-56] | 0.0586 | –
COc1cc(C)c2[nH]ccc2c1CN1CCC2(CC1c1ccc(C(=O)O)cc1)CC(F)(F)C2 (racemic) [Ex-47] | – | 0.0025
COc1cc(C)c2[nH]ccc2c1CN1CCC2(C[C@@H]1c1ccc(C(=O)O)cc1)CC(F)(F)C2 [Ex-6, (R)-4-(2,2-difluoro-7-((5-methoxy-7-methyl-1H-indol-4-yl)methyl)-7-azaspiro[3.5]nonan-6-yl)benzoic acid] | 0.715 | –
COCCn1cc([C@@H]2CC3(CCN2Cc2c(OC)cc(C)c4[nH]ccc24)CC(F)(F)C3)cn1 (single isomer, unassigned) [Ex-44] | 0.0099 | –
Cc1cc(C2CC2)c(CN2CCC3(C[C@H]2c2ccc(-n4cccn4)cc2)CC(F)(F)C3)c2cc[nH]c12 (single isomer, unassigned) [Ex-31] | 0.0038 | –
